US20150224061A1, “NANOCONSTRUCTS WITH PHARMACOLOGICAL ACTIVITY” (UNIVERSITA' DEGLI STUDI DI MILANO - BICOCCA, priority 2012, published 2015)
Read-outs that look alike come from different tables or passages of the source. Where no end group is shown, it is not given here.

How the values were obtained:
[1] = system: NFAT-dependent edema induced by LPS; assay: LPS-induced paw edema model; assay type: in vivo, mouse; settings: subcutaneous pretreatment 2 hours prior to LPS in the paw
Protocol: FIG. 4. Inhibition of the NFAT pathway in the formation of edema of the paw in response to LPS. The animals were pretreated, or not, with the nanoconstructs (MYTS-VIVIT) or FK-506 (approximately 2 h) and were then treated locally with LPS.
To assess whether the nanoparticles of the present invention are able to inhibit in vivo the formation of LPS-induced edema, the mice were pretreated, or not, with the nanoconstructs of example 1 or FK506 as control sub-cutaneously for 2 hours prior to the injection of LPS in the paw.

[2] = system: skin transplant rejection; assay: Skin transplant rejection model (male skin into female mice); assay type: in vivo, mouse
Protocol: FIG. 6. Inhibition of skin transplant rejection. Male skin was grafted in female mice. The mice were then injected endovenously, or not, with the nanoconstructs (MYTS-VIVIT or MYTS-VEET) on days −1, 0, +1, +3, +6, +9, +12, and +15. In addition, the mice were then left without treatment for a further 20 days. The boxes M in M represent the untreated controls and show the skin transplant from male mouse to male mouse. […] The boxes M in F represent the skin transplant from male mouse to female mouse without treatment with the nanoconstructs. The scar of the rejection is clearly visible on day 30. The rejection can also be seen in boxes M in F (male into female) treated with the control MYTS-VEET nanoconstructs. Vice versa, in the boxes representing the transplant from male to female with MYTS-VIVIT treatment (M in F+MYTS-VIVIT), the acceptance of the graft is clearly visible. The bar chart beneath represents a quantification of the results of the experiment. To summarize, the transplant was accepted in 80% of cases treated with the MYTS-VIVIT nanoconstructs, whereas it was rejected in 100% of untreated cases and in 80% of cases treated with the control MYTS-VEET nanoconstruct.
To verify whether the nanoconstructs of the present invention are able to inhibit transplant rejection, a skin transplant model was used. […]

inflammatory arthritis = assay: Arthritis induced by anti-collagen antibodies/LPS; assay type: in vivo, C57BL6 mice; settings: treated on days −1, 0, +1, +3, +6, +9, +12
Protocol: FIG. 5. Inhibition of the development of arthritis. FIG. 5A: the mice were treated endovenously, or were not treated, at −1, 0, +1, +3, +6, +9, and +12 days with the nanoconstructs (MYTS-VIVIT) or with nanoconjugates MYTS-VEET (a peptide similar to VIVIT in which the sequence has been modified, thus losing specificity for Cn). Day 0 represents the start of the procedure of inducing arthritis. The clinical points indicative of the severity of the arthritis were assessed on the days indicated. In FIG. 5B, photographs showing arthritis on the seventh day in a treated mouse and in an untreated mouse are shown.
Rheumatoid arthritis (AR) is a chronic, debilitating systemic autoimmune disease characterized by an immunological inflammatory reaction of the mesenchymal tissue and of the synovial fluid accompanied by polyarticular synovitis. Over time, it leads to the progressive destruction of the articular and periarticular structures. […] To verify whether the nanoconstructs of the present invention are able to inhibit the development of inflammatory arthritis, a model of arthritis induced by anti-collagen antibody of the IL/LPS type was used. In particular, six C57BL6 mice were treated on days −1, 0, +1, +3, +6, +9, +12 with the nanoconstructs of example 1.

[3] = system: transduction signal pathway of NFAT; assay: IL-2 production (ELISA) by LPS-stimulated DCs derived from bone marrow, marker of NFAT pathway; assay type: cell-based, mouse; settings: 18 hours; for inhibition of NFAT activity (IL-2 release, ELISA): peptide 25 uM pretreatment, LPS 100 ng/ml
Protocol: (§1) FIG. 2. Inhibition of the transduction of the NFAT signals by means of the MYTS-VIVIT nanoconstructs in DCs derived from bone marrow. The DCs were pre-treated, or not, with the indicated quantities of MYTS-VIVIT for two hours and then activated with LPS for 18 hours. The quantities of IL-2 and TNFα in the supernatant were measured using the ELISA method.
(§2) In order to assess whether nanoconstructs are able to inhibit the transduction signal pathway of NFAT, the following experiments were carried out in vitro. After exposure to LPS, the DCs derived from bone marrow were able to produce various inflammatory cytokines, including IL-2 and TNFα. IL-2 was strictly NFAT-dependent, whereas the production of TNFα was NF-kB-dependent and NFAT-independent. IL-2 and TNFα are therefore valid markers respectively of the activation pathway of NFAT and NF-kB. After two hours of pretreatment with the nanoconstructs obtained as described in example 1, the DCs derived from bone marrow were stimulated with LPS and the quantity of released cytokines was measured using the ELISA method 18 hours later.
(§3) DCs produce IL-2 in an NFAT-dependent manner if stimulated with LPS. To assess the efficacy of the VIVIT peptide, DCs derived from bone marrow were transduced with a sequence coding the VIVIT peptide fused with the GFP protein through use of a retroviral vector.
Since DCs are phagocyte cells, we firstly used the non-modified peptide, assuming that this could reach the cell cytosol once entered into the endosomal compartment. We then carried out co-cultures of DCs with the VIVIT peptide, and the inhibition of NFAT was analyzed by measuring the production of IL-2 following stimulation with LPS. […] A modified VIVIT peptide was then assessed, to which a […] 11-arginine tail had been attached. It has, in fact, been described in the literature that this modification can allow entry into the cells.

NF-kB = assay: TNFα production (ELISA) by LPS-stimulated DCs derived from bone marrow, marker of NF-kB pathway; assay type: cell-based, mouse; settings: 2 h pretreatment, then LPS, 18 hours
Protocol: as §1, §2, §3

[4] = system: transduction signal pathway of NFAT; assay: GFP+ Ly6G+ spleen neutrophils in IL-2/GFP mutant mice after LPS; assay type: in vivo, mouse; settings: i.v. two hours before LPS injection
Protocol: FIG. 3. The NFAT pathway is active in the neutrophils. Mice genetically modified by IL-2/GFP were treated, or not, with MYTS-VIVIT and were then injected intravenously two hours after with LPS. The bars represent the percentage of GFP+Ly6G^+ spleen neutrophils […] after the treatment with LPS. In this mouse model, GFP was inserted in the second exon of IL-2 and therefore has the same regulation of IL-2.
Mutant mice (obtained from laboratories of Ronald H. Schwartz, NIH Bethesda) were used for this experiment. In this mouse model, the GFP protein was inserted into the second exon of the gene IL-2, and therefore had the same regulation of IL-2. As mentioned before, IL-2 is a marker of NFAT activation. If the mice genetically modified with regard to IL-2/GFP are treated with LPS, a significant percentage of GFP+ neutrophils (Ly6G+ cells) can be measured in the spleen two hours after treatment. To verify whether the nanoconstructs of the present invention are able to inhibit the signal pathway of NFAT in vivo, mutant mice were injected endovenously with the nanoconstructs as prepared in example 1 two hours before the injection of LPS.

calcineurin (Cn) = settings: cited from earlier work
[5] = system: NF-kB transcription factor; settings: cited from earlier work
NFAT = settings: cited from earlier work
neurons = settings: i.v., 1 hour, magnet applied to the skull
Protocol: Then, a staining of the neurons was carried out with the fluorescent probe NeuroTrace (which stains the substance Nissi, which is abundant in neuronal cells and is formed from ribosomal RNA associated with the endoplasmic reticulum).

With “MYTS-VIVIT (H-CGGGKMAGPVIVITGPHEE-OH; not fully specified; printed as NH2—CGGGKMAGPVIVITGPHEE-COOH)” the “formation of LPS-induced paw edema” value [1] was “significantly inhibited”, the skin transplants accepted ([2]; i.v. treatment from day −1, after four weeks / day 30) was 80% and the skin transplants accepted ([2]; i.v. treatment from day −1, after four weeks / day 30, listed as nanoconstructs bearing the VIVIT peptide) was 90%. The “development of arthritis (clinical points)” value (inflammatory arthritis) was “inhibit the development of arthritis very effectively”, the “IL-2 released (ELISA)” value ([3]; 2 h pretreatment, then LPS) was “completely block IL-2” and the “TNFα released (ELISA)” value (NF-kB) was “not the production of TNFα”. For the same substance, the “percentage of GFP+ Ly6G+ spleen neutrophils” value [4] was “strong impact on the ability of the neutrophils to produce GFP”.
For “NH2—CGGGKMAGPVIVITGPHEE-COOH (H-CGGGKMAGPVIVITGPHEE-OH; listed as Homo sapiens)”, the “inhibition of NFAT activity (IL-2 release, ELISA)” value (“inhibition of NFAT activity” for short) [3] was “unable to penetrate into the cytosol of the DCs and to block the activity of NFATs” and the “inhibition of NFAT activity” value ([3]; listed as free, non-modified VIVIT peptide) was “did not make it possible to interfere with the activity of NFAT”.
In the case of Val-Ile-Val-Ile-Thr [VIVIT], the “affinity for Cn” value (calcineurin (Cn)) is listed as “increased affinity for Cn”, the “inhibition of NF-kB (gene reporter)” value [5] is listed as “not the activity of the NF-kB transcription factor” and the “inhibition of NFAT (gene reporter)” value (NFAT) is listed as “effectively inhibits NFAT and its activity”.
With enfuvirtide the “accumulation of AF660-labeled drug in neurons (confocal microscopy)” value (neurons; listed as free enfuvirtide) was “only in the case of the drug conjugated to the MYTS nanoparticles” and the “accumulation of AF660-labeled drug in neurons (confocal microscopy)” value (neurons; listed as labeled drug not conjugated to the nanoparticles) was “traces of fluorescence cannot be seen”.
In the case of “peptide with an 11-arginine tail: peptide with sequence SEQ ID NO:1 conjugated with an 11-arginine tail (CGGGKMAGPVIVITGPHEE; also: 11-arginine tail conjugated, end not given here; listed as Homo sapiens)”, the “inhibition of NFAT activity” value [3] is reported as “unable to penetrate into the cytosol of the DCs and to block the activity of NFATs” and the “inhibition of NFAT activity” value ([3]; listed as modified VIVIT peptide) is reported as “not possible to observe any inhibition of the NFAT pathway”.
